Where a name gives a salt, the structure may show the parent alone.
Experiments:
[1] = biological target: T1, Human Histamine H3 Receptor (Homo sapiens, UniProt Q9Y5N1); experiment: Methyl histamine binding in Human Histamine H3 Receptor Cell Line; details: read-out: hH3 Binding Ki
T1 construct: expressed in transfected cells; host or cells: HEK293T (stably transfected; membrane preparation)
Method: Evaluation of Methyl histamine binding in Human Histamine H3 Receptor Cell Line
The affinity of test compounds for the histamine 3 (H3) receptor is evaluated in the following manner. […] Cells are scraped from the plate, transferred to centrifuge tubes, washed one time in PBS by centrifugation in a Sorvall RT7 Plus centrifuge (2000 rpm 10 minutes, 4° C.). The resulting pellets are stored at −80° C. until ready for use. Cells are re-suspended in buffer (50 mM Tris pH=7.5) and placed in a Dounce homogenizer, douncing ten times to homogenize cells. The homogenate is spun down by centrifugation (Sorvall RT7 Plus, 1800 rpm 10 minutes, 4° C.). The supernatant is placed in a Corex tube and spun down by centrifugation (Sorvall RC 5c Plus, 17,000 rpm 20 minutes, 4° C.). The pellet is resuspended in buffer (50 mM Tris, pH 7.5). Protein concentration (ug/ul) is determined using the Micro-BCA Protein Determination. The binding assay is set up in a 96 well microtiter plate in a total volume of 250 uL. Non-specific binding is determined in the presence of 10 uM clobenpropit. The final radioligand concentration is 1 nM. The test compound is serially diluted using the Beckman Biomek2000 to a final approximate range of 100 uM to 100 pM. Membranes are suspended in buffer, homogenized in 2 bursts of ten seconds using a Vitris mechanical homogenizer set at power setting 5. Ten μg of membranes are added to each well. Following a one hour incubation at 30° C., the reaction is terminated by the addition of ice cold buffer and rapid filtration with a Packard Filtermate Harvester through a GF/B filter pre-soaked with 1% PEI for one hour. The plate is dried for one hour at 37° C. and 60 μL Microscint Scintillant is added to each well. The CPM per well is measured on a Packard Top Count NXT. Ki values are determined in nM. […] CPM values are expressed as % specific binding and plotted vs compound concentration. A curve is fitted using a four-parameter logistic fit and the IC50 value is determined. The Ki is calculated from this using the Cheng-Prusoff equation: […]=IC50/1+(L/Kd) where L=concentration of free radioligand used in the assay, and Kd is the dissociation constant of the radioligand for the receptor. L is determined for each experiment by counting an aliquot of the diluted radioligand (corresponding to that added to each well) and the Kd has previously been determined under identical conditions for this cell line/radioligand.

T1 sequence (Q9Y5N1 whole entry): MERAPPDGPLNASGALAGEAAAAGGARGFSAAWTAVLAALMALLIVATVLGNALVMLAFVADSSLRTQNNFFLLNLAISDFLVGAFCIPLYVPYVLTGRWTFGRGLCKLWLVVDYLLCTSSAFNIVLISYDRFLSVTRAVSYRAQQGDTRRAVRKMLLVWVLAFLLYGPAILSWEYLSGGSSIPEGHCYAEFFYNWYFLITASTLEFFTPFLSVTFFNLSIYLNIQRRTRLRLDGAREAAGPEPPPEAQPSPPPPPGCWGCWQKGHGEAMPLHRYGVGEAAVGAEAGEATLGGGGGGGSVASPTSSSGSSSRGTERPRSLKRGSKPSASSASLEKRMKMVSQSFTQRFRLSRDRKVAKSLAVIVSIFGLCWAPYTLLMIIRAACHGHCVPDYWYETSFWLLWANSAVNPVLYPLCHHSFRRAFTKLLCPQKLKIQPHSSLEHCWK

Structure (SMILES) | melting point [°C] | Ki [1] [nM]
CN(C(=O)c1ccc(Cn2cnc3ccccc32)cc1)C1CCNCC1 [Example 45, 4-((1H-benzo[d]imidazol-1-yl)methyl)-n-methyl-N-(piperidin-4-yl)benzamide] | 199 to 201 | > 100
Cc1nc2cc(C#N)ccc2n1-c1ccc(C(=O)N(C)[C@@H]2CCNC2)cc1 [Example 53, (R)-4-(5-cyano-2-methyl-benzoimidazol-1-yl)-N-methyl-N-pyrrolidin-3-yl-benzamide] | 178 to 180 | > 100
Cc1nc2ccccc2n1-c1ccc(C(=O)N[C@@H]2CCN(C3CCCCC3)C2)cc1 [Example 137, N-[(3R)-1-cyclohexylpyrrolidin-3-yl]-4-(2-methyl-1H-benzimidazol-1-yl)benzamide] | – | > 100
CCN(C(=O)c1ccc(-n2c(C)nc3ccccc32)cc1)[C@@H]1CCNC1 [Example 138, (R)—N-ethyl-4-(2-methyl-1H-benzo[d]imidazol-1-yl)-N-(pyrrolidin-3-yl)benzamide hydrochloride] | – | > 100
CCN(C(=O)c1ccc(-n2c(C)nc3ccccc32)cc1)[C@@H]1CCN(C2CCCCC2)C1 [Example 142, N-[(3R)-1-cyclohexylpyrrolidin-3-yl]-N-ethyl-4-(2-methyl-1H-benzimidazol-1-yl)benzamide] | – | > 100

Further lines, results first:

melting point [°C] | Ki [1] [nM] | Structure (SMILES)
196 to 198 | > 100 | Cc1nc2ccccc2n1Cc1ccc(C(=O)N(C)C2CCNCC2)cc1 [Example 44, N-methyl-4-((2-methyl-1H-benzo[d]imidazol-1-yl)methyl)-N-(piperidin-4-yl)benzamide]
– | 50.1 to 100 | Cc1nc2ccccc2n1-c1ccc(C(=O)N(C)C2CCN(C3CCCC3)CC2)c(Cl)c1 [Example 122, 2-chloro-N-(1-cyclopentylpiperidin-4-yl)-N-methyl-4-(2-methyl-1H-benzimidazol-1-yl)benzamide]
